ChEMBL document CHEMBL4507277

Key:
[1] = system: Tyrosine-protein kinase ABL1 (Homo sapiens), P00519 [H396P]; conditions: Compound concentration 1000.0 nM
[2] = molecular target: Tyrosine-protein kinase ABL1 (Homo sapiens) (UniProt P00519); conditions: Compound concentration 1000.0 nM
[3] = molecular target: Tyrosine-protein kinase ABL1 (Homo sapiens) (UniProt P00519); conditions: Compound concentration 1000.0 nM; remark: listed apart in the source
[4] = molecular target: Activin receptor type-1-like (Homo sapiens) (UniProt P37023); conditions: Compound concentration 1000.0 nM
[5] = molecular target: RAC-alpha serine/threonine-protein kinase (Homo sapiens) (UniProt P31749); conditions: Compound concentration 1000.0 nM
[6] = molecular target: 5'-AMP-activated protein kinase catalytic subunit alpha-1 (Homo sapiens) (UniProt Q13131); conditions: Compound concentration 1000.0 nM
Sequence of 5'-AMP-activated protein kinase catalytic subunit alpha-1 (Homo sapiens) (Q13131 whole entry, looked up): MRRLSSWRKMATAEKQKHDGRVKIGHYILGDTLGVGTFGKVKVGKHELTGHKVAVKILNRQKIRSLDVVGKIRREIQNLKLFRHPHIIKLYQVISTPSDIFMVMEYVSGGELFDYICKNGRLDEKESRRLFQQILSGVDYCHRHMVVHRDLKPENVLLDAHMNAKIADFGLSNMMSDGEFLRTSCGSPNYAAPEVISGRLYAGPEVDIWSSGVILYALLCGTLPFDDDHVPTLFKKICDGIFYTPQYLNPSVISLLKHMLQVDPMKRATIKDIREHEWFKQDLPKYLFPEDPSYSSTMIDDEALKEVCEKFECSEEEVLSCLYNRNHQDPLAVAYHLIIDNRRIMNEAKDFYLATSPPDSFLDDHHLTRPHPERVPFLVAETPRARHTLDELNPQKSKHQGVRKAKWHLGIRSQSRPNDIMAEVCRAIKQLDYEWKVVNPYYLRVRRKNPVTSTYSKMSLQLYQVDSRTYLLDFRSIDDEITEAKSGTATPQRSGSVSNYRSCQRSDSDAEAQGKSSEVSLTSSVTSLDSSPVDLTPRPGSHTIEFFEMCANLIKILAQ

[7] = molecular target: Tyrosine-protein kinase receptor UFO (Homo sapiens) (UniProt P30530); conditions: Compound concentration 1000.0 nM
[8] = molecular target: Bone morphogenetic protein receptor type-2 (Homo sapiens) (UniProt Q13873); conditions: Compound concentration 1000.0 nM
[9] = molecular target: Tyrosine-protein kinase BTK (Homo sapiens) (UniProt Q06187); conditions: Compound concentration 1000.0 nM
[10] = molecular target: Calcium/calmodulin-dependent protein kinase kinase 1 (Homo sapiens) (UniProt Q8N5S9); conditions: Compound concentration 1000.0 nM
[11] = molecular target: Cyclin-dependent kinase 3 (Homo sapiens) (UniProt Q00526); conditions: Compound concentration 1000.0 nM
Sequence of Cyclin-dependent kinase 3 (Homo sapiens) (Q00526 whole entry, looked up, canonical isoform): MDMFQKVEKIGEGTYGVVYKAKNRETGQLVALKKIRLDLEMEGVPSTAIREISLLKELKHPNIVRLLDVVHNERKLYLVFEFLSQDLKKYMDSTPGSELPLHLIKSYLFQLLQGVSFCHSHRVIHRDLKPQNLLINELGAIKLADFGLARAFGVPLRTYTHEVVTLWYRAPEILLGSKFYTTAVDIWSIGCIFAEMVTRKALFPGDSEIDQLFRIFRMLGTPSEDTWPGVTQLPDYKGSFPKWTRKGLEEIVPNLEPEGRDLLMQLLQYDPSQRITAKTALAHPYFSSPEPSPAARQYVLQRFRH

[12] = molecular target: Casein kinase I isoform gamma-2 (Homo sapiens) (UniProt P78368); conditions: Compound concentration 1000.0 nM
[13] = molecular target: Megakaryocyte-associated tyrosine-protein kinase (Homo sapiens) (UniProt P42679); conditions: Compound concentration 1000.0 nM
[14] = molecular target: Death-associated protein kinase 3 (Homo sapiens) (UniProt O43293); conditions: Compound concentration 1000.0 nM
Sequence of Death-associated protein kinase 3 (Homo sapiens) (O43293 whole entry, looked up): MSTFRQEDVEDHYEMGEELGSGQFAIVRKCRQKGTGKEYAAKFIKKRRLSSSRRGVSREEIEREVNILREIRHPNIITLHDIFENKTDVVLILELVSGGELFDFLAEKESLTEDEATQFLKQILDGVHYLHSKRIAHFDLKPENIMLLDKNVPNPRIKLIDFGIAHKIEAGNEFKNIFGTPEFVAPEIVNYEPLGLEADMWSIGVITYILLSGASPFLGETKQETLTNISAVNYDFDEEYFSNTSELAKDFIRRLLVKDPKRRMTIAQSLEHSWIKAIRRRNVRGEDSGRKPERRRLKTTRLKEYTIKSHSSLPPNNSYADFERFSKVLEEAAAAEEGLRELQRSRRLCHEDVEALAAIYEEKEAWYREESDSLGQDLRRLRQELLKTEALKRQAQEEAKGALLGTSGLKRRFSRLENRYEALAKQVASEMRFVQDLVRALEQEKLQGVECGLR

[15] = molecular target: Dual specificity tyrosine-phosphorylation-regulated kinase 1A (Homo sapiens) (UniProt Q13627); conditions: Compound concentration 1000.0 nM
[16] = system: Receptor-type tyrosine-protein kinase FLT3 (Homo sapiens), P36888 [D835H]; conditions: Compound concentration 1000.0 nM
[17] = system: Receptor-type tyrosine-protein kinase FLT3 (Homo sapiens), P36888 [UNDEFINED MUTATION]; conditions: Compound concentration 1000.0 nM
[18] = system: Receptor-type tyrosine-protein kinase FLT3 (Homo sapiens), P36888 [UNDEFINED MUTATION]; conditions: Compound concentration 1000.0 nM; remark: listed apart in the source
[19] = molecular target: Tyrosine-protein kinase FRK (Homo sapiens) (UniProt P42685); conditions: Compound concentration 1000.0 nM
[20] = molecular target: Homeodomain-interacting protein kinase 2 (Homo sapiens) (UniProt Q9H2X6); conditions: Compound concentration 1000.0 nM
[21] = molecular target: Homeodomain-interacting protein kinase 3 (Homo sapiens) (UniProt Q9H422); conditions: Compound concentration 1000.0 nM
[22] = molecular target: Insulin receptor (Homo sapiens) (UniProt P06213); conditions: Compound concentration 1000.0 nM
[23] = molecular target: Interleukin-1 receptor-associated kinase 3 (Homo sapiens) (UniProt Q9Y616); conditions: Compound concentration 1000.0 nM
[24] = molecular target: Serine/threonine-protein kinase LATS1 (Homo sapiens) (UniProt O95835); conditions: Compound concentration 1000.0 nM
[25] = molecular target: Serine/threonine-protein kinase LATS2 (Homo sapiens) (UniProt Q9NRM7); conditions: Compound concentration 1000.0 nM
[26] = molecular target: Mitogen-activated protein kinase kinase kinase 1 (Homo sapiens) (UniProt Q13233); conditions: Compound concentration 1000.0 nM
[27] = molecular target: Mitogen-activated protein kinase kinase kinase kinase 3 (Homo sapiens) (UniProt Q8IVH8); conditions: Compound concentration 1000.0 nM
[28] = molecular target: Serine/threonine-protein kinase MARK2 (Homo sapiens) (UniProt Q7KZI7); conditions: Compound concentration 1000.0 nM
[29] = molecular target: Tyrosine-protein kinase Mer (Homo sapiens) (UniProt Q12866); conditions: Compound concentration 1000.0 nM
Sequence of Tyrosine-protein kinase Mer (Homo sapiens) (Q12866 whole entry): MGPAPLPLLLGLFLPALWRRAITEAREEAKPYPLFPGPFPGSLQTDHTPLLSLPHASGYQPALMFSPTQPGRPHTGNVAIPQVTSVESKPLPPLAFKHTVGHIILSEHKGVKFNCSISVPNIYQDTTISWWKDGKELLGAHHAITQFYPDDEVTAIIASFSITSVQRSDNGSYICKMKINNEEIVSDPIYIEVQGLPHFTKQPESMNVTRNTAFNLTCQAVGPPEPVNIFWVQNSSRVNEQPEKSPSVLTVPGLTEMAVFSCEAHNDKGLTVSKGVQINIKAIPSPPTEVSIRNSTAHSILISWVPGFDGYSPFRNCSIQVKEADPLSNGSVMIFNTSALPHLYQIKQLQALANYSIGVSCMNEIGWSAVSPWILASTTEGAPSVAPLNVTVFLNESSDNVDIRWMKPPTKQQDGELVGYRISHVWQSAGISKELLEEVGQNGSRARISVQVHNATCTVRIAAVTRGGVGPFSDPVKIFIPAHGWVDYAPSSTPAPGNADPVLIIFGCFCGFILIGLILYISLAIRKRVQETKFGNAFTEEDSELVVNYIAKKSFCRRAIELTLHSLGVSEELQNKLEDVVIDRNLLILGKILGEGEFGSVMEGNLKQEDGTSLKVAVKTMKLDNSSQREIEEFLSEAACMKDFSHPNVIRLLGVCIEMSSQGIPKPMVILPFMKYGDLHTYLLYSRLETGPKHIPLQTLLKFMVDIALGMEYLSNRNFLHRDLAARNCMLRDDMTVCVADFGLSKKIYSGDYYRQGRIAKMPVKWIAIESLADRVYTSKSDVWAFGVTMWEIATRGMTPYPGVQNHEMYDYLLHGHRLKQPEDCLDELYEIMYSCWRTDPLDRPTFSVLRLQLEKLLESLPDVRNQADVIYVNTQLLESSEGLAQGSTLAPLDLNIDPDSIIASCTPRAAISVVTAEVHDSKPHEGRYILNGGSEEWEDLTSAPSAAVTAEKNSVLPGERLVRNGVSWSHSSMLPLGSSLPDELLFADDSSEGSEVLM

[30] = molecular target: Serine/threonine-protein kinase 24 (Homo sapiens) (UniProt Q9Y6E0); conditions: Compound concentration 1000.0 nM
[31] = molecular target: Myosin light chain kinase 2, skeletal/cardiac muscle (Homo sapiens) (UniProt Q9H1R3); conditions: Compound concentration 1000.0 nM
[32] = molecular target: Mitogen-activated protein kinase 13 (Homo sapiens) (UniProt O15264); conditions: Compound concentration 1000.0 nM
[33] = molecular target: Serine/threonine-protein kinase PAK 2 (Homo sapiens) (UniProt Q13177); conditions: Compound concentration 1000.0 nM
[34] = molecular target: Phosphatidylinositol 3-kinase C2 domain-containing subunit gamma (Homo sapiens) (UniProt O75747); conditions: Compound concentration 1000.0 nM
[35] = molecular target: 1-phosphatidylinositol 3-phosphate 5-kinase (Homo sapiens) (UniProt Q9Y2I7); conditions: Compound concentration 1000.0 nM
Sequence of 1-phosphatidylinositol 3-phosphate 5-kinase (Homo sapiens) (Q9Y2I7 whole entry): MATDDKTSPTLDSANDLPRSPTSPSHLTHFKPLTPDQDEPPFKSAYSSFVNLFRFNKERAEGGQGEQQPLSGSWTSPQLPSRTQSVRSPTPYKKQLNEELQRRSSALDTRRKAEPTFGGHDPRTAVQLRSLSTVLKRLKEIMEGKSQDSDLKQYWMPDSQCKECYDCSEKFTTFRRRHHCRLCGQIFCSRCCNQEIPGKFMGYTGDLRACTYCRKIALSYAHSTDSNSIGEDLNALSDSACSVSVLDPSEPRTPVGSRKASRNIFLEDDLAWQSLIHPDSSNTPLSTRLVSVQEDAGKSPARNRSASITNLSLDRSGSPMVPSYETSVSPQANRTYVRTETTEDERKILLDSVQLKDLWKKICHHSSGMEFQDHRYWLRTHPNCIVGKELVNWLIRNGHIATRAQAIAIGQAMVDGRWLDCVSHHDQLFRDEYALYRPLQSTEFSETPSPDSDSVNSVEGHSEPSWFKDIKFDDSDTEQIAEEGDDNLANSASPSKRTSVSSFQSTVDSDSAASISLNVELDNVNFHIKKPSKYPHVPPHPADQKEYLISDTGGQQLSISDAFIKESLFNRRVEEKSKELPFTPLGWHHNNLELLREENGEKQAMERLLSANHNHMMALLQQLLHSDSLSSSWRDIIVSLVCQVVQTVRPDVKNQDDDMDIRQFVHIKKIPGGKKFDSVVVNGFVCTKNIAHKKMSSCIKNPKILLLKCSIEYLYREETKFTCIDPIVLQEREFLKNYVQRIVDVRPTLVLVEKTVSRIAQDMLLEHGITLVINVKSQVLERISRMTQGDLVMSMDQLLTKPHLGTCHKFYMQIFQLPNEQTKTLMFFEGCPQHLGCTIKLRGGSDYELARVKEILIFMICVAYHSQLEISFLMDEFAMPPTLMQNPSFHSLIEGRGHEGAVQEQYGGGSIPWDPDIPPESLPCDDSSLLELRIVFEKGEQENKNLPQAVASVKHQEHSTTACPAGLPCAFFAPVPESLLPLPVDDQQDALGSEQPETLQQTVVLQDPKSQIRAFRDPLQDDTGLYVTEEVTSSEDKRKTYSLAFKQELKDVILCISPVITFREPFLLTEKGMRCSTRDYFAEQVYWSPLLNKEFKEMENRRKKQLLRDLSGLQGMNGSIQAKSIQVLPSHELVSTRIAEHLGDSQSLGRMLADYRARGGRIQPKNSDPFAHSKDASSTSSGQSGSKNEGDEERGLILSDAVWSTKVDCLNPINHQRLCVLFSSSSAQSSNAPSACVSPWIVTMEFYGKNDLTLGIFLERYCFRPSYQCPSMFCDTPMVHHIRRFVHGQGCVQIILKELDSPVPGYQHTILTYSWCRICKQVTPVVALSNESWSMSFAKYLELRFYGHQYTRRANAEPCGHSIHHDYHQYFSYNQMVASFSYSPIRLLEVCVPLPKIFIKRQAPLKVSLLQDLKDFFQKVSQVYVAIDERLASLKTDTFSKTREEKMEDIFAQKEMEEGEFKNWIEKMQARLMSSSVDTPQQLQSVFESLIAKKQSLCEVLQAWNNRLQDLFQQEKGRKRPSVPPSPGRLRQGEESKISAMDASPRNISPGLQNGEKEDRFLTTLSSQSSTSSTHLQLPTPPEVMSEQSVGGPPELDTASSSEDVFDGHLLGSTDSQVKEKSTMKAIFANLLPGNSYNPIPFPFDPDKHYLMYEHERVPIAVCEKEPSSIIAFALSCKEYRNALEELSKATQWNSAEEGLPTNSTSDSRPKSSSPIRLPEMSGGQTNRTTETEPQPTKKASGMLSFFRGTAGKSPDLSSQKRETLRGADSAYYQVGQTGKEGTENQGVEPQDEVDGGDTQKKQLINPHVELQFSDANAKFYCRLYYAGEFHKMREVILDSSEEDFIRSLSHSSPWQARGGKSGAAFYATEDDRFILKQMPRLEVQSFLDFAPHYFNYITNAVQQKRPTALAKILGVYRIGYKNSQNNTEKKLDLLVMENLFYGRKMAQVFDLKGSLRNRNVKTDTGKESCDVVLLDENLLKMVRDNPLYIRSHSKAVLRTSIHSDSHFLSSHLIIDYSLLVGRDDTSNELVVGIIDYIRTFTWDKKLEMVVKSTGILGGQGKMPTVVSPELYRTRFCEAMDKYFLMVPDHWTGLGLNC

[36] = molecular target: Phosphatidylinositol 4-phosphate 5-kinase type-1 alpha (Homo sapiens) (UniProt Q99755); conditions: Compound concentration 1000.0 nM
[37] = molecular target: Serine/threonine-protein kinase D3 (Homo sapiens) (UniProt O94806); conditions: Compound concentration 1000.0 nM
[38] = molecular target: Serine/threonine-protein kinase PRP4 homolog (Homo sapiens) (UniProt Q13523); conditions: Compound concentration 1000.0 nM
[39] = molecular target: Serine/threonine-protein kinase RIO1 (Homo sapiens) (UniProt Q9BRS2); conditions: Compound concentration 1000.0 nM
[40] = molecular target: Ribosomal protein S6 kinase alpha-5 (Homo sapiens) (UniProt O75582); conditions: Compound concentration 1000.0 nM
[41] = molecular target: Uncharacterized serine/threonine-protein kinase SBK3 (Homo sapiens) (UniProt P0C264); conditions: Compound concentration 1000.0 nM
Sequence of Uncharacterized serine/threonine-protein kinase SBK3 (Homo sapiens) (P0C264 whole entry): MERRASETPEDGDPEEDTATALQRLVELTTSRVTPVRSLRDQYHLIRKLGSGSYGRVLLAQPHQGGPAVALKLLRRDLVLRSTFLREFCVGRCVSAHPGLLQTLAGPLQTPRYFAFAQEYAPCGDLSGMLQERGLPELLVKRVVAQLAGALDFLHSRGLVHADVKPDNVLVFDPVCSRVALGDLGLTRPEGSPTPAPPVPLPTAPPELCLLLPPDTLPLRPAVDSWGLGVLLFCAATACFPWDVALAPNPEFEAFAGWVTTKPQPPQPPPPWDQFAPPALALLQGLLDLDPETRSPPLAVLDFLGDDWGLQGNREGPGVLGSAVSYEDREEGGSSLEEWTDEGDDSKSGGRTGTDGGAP

[42] = molecular target: Serine/threonine-protein kinase 36 (Homo sapiens) (UniProt Q9NRP7); conditions: Compound concentration 1000.0 nM
[43] = molecular target: Serine/threonine-protein kinase ULK1 (Homo sapiens) (UniProt O75385); conditions: Compound concentration 1000.0 nM
[44] = molecular target: Serine/threonine-protein kinase WNK2 (Homo sapiens) (UniProt Q9Y3S1); conditions: Compound concentration 1000.0 nM
[45] = molecular target: Alpha-2B adrenergic receptor (Homo sapiens) (UniProt P18089); conditions: Compound concentration 10.0 uM

CCS(=O)(=O)c1cc2cc(C[C@](O)(CC(C)(C)c3ccc(F)cc3C(N)=O)C(F)(F)F)[nH]c2cn1
active: residual activity [25] 40%
inactive: residual activity [1] 89% | residual activity [2] 100% | residual activity [3] 100% | residual activity [4] 100% | residual activity [5] 100% | residual activity [6] 100% | residual activity [7] 89% | residual activity [8] 100% | residual activity [9] 100% | residual activity [10] 100% | residual activity [11] 100% | residual activity [12] 93% | residual activity [13] 100% | residual activity [14] 97% | residual activity [15] 100% | residual activity [16] 100% | residual activity [17] 91% | residual activity [18] 95% | residual activity [19] 80% | residual activity [20] 100% | residual activity [21] 100% | residual activity [22] 94% | residual activity [23] 96% | residual activity [24] 98% | residual activity [26] 87% | residual activity [27] 83% | residual activity [28] 78% | residual activity [29] 100% | residual activity [30] 86% | residual activity [31] 98% | residual activity [32] 100% | residual activity [33] 86% | residual activity [34] 100% | residual activity [35] 97% | residual activity [36] 100% | residual activity [37] 99% | residual activity [38] 98% | residual activity [39] 80% | residual activity [40] 100% | residual activity [41] 100% | residual activity [42] 100% | residual activity [43] 100% | residual activity [44] 100% | inhibition [45] 24.7%

CCS(=O)(=O)c1cc2cc(C[C@@](O)(CC(C)(C)c3ccc(F)cc3C(N)=O)C(F)(F)F)[nH]c2cn1
inactive: residual activity [1] 99% | residual activity [2] 99% | residual activity [3] 71% | residual activity [4] 100% | residual activity [5] 86% | residual activity [6] 100% | residual activity [7] 100% | residual activity [8] 91% | residual activity [9] 100% | residual activity [10] 87% | residual activity [11] 73% | residual activity [12] 95% | residual activity [13] 100% | residual activity [14] 100% | residual activity [15] 66% | residual activity [16] 100% | residual activity [17] 78% | residual activity [18] 86% | residual activity [19] 100% | residual activity [20] 100% | residual activity [21] 65% | residual activity [22] 86% | residual activity [23] 67% | residual activity [24] 77% | residual activity [25] 100% | residual activity [26] 51% | residual activity [27] 82% | residual activity [28] 100% | residual activity [29] 100% | residual activity [31] 100% | residual activity [32] 96% | residual activity [33] 94% | residual activity [34] 100% | residual activity [35] 69% | residual activity [36] 100% | residual activity [37] 100% | residual activity [38] 80% | residual activity [39] 50% | residual activity [40] 69% | residual activity [41] 94% | residual activity [42] 98% | residual activity [43] 100% | inhibition [45] 6.5%
active: residual activity [30] 0% | residual activity [44] 46%
